Like-named read-outs stand apart in the source and are kept apart here.
Experiments:
[1] = analgesic activity (technique of E. Siegmund et al.); assay type: in vivo
Description: Exp. Biol. Med., 95, 729 (1957).

substance P = experiment: inhibition of the increase in capillary permeability caused by substance P (technique of A. Saria et al.); assay type: in vivo; settings: Rattus norvegicus, iv, rats
Description: The study of several isoindolone derivatives of general formula (I) using the technique of A. Saria et al., Arch.

septide [2] = experiment: antagonism of hypotension induced by septide / substance P (technique of C. A. Maggi et al.); assay type: in vivo; settings: 0.2 mg/kg i.v./min, for 5 min; rats; i.v. injection of 250 μg of septide
Procedure: The injection of substance P into the animal causes hypotension. The products studied using the technique of C. A. Maggi et al., J. Auton. Pharmac., 7, 11-32 (1987) show an antagonist effect in rats towards this hypotension. In particular, the product of Example 60 administered in a dose of 0.2 mg/kg i.v./min, for 5 min, causes an approximately 50% antagonism of the hypotension induced by an i.v. injection of 250 μg of septide.

septide [3] = experiment: antagonism of behavioural effects induced by septide administered intrathecally (technique of R. E. Rodriguez et al.); assay type: in vivo; settings: rats
[4] = system: substance P receptors of human cells: lymphoblasts of line IM 9; experiment: binding of substance P-H^3 on washed homogenates of IM-9 cells; settings: substance P-H^3 1 nM
Procedure: Substance P plays a role in the modulation of immune processes (J. P. McGillis et al., Fed. Proc., 46 (1), 196-199 (1987)). Substance P binds to receptors of human cells in cultures: the lymphoblasts of line IM 9 [D. G. Payan et al., J. of Immunology, 133 (6), 3260-5 (1984)]. The products according to the invention displace substance P at these locations.
Binding substance P--H^3 (concentration 1 nM)
on washed homogenates of IM-9 cells after freezing

COc1ccccc1CC(=N)N1C[C@@H]2C(=O)CCC(c3ccccc3)(c3ccccc3)[C@@H]2C1 (racemic) [Example 48, (3aRS,7aRS)-2-[1-imino-2-(2-methoxyphenyl)ethyl]-7,7-diphenyl-4-perhydroisoindolone]
ED50 ([1]; p.o.): 4 mg/kg p.o.

CN(C)c1ccccc1CC(=O)N1C[C@@H]2C(=O)CCC(c3ccccc3)(c3ccccc3)[C@@H]2C1 [Example 60, (3aR,7aR)-7,7-diphenyl-2-[2-(2-dimethylaminophenyl)acetyl]-4-perhydroisoindolone]
ED50 ([1]; po, read-out: ED50): 38 mg/kg
ED50 (substance P): ~1 mg/kg
antagonism of the hypotension induced by septide (septide [2]): approximately 50%
% inhibition of the behaviour at a dose of 10 mg/kg sc (septide [3]): 80%

O=C1CCC(c2ccccc2)(c2ccccc2)[C@@H]2CN(C(Cc3ccccc3)=NCc3cccs3)C[C@H]12 (relative stereo) [Example 27]
ED50 ([1]; po, read-out: ED50): 29 mg/kg

N=C(Cc1ccccc1)N1C[C@@H]2C(=O)CCC(c3ccccc3)(c3ccccc3)[C@@H]2C1 (racemic) [Example 4, (3aRS,7aRS)-2-(α-iminophenethyl)-7,7-diphenyl-4-perhydroisoindolone]
ED50 ([1]; po, read-out: ED50): 42 mg/kg

COc1ccccc1CC(=O)N1C[C@@H]2C(=O)CCC(c3ccccc3)(c3ccccc3)[C@@H]2C1 [Example 49, (3aR,7aR)-(-)-7,7-diphenyl-2-[(2-methoxyphenyl)acetyl]-4-perhydroisoindolone]
Binding substance P-H^3 (concentration 1 nM) on washed homogenates of IM-9 cells after freezing [4]: 680

COc1ccccc1CC(=N)N1C[C@@H]2C(=O)CCC(c3ccccc3)(c3ccccc3)[C@@H]2C1 [Example 50, (3aR,7aR)-2-[1-imino-2-(2-methoxyphenyl)ethyl]-7,7-diphenyl-4-perhydroisoindolone]
ED50 ([1]; p.o.): 0.3 mg/kg p.o.
ED50 (substance P): ~0.05 mg/kg
% inhibition of the behaviour at a dose of 10 mg/kg sc (septide [3]): 50%

COc1ccccc1[C@H](C)C(=O)N1C[C@@H]2C(=O)CCC(c3ccccc3)(c3ccccc3)[C@@H]2C1 [Example 76, (3aR,7aR)-7,7-diphenyl-2-[(S)-2-(2-methoxyphenyl)propionyl]-4-perhydroisoindolone]
Binding substance P-H^3 (concentration 1 nM) on washed homogenates of IM-9 cells after freezing [4]: 315

O=C1CCC(c2ccccc2)(c2ccccc2)[C@@H]2CN(C(Cc3ccccc3)=NCc3ccccc3)C[C@H]12 (racemic) [Example 13, (3aRS,7aRS)-2-(α-benzyliminophenethyl)-7,7-diphenyl-4-perhydroisoindolone]
ED50 ([1]; po, read-out: ED50): 19 mg/kg
